Among the data in BindingDB's records for doi:10.7270/Q2TX3CTT (Broad Institute, 2010) are EC50 values, retold here.

The structures appear in SMILES notation. pEC50: −log10 of the molar value.

Glycogen synthase kinase-3 beta, sequence (P49841 whole entry): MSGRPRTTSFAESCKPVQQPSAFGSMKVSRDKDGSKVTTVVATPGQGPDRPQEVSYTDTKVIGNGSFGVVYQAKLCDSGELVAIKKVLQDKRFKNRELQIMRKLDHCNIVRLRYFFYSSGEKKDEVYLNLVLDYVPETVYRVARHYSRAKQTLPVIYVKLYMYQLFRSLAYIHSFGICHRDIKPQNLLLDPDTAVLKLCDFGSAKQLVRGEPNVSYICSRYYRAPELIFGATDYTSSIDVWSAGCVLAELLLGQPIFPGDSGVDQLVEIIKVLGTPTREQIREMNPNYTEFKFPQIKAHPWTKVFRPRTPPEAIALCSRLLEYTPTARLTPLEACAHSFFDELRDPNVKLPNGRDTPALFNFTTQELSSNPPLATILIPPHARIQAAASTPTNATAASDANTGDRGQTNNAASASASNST

This test concerns the target Glycogen synthase kinase-3 beta (Homo sapiens, UniProt P49841). Put plainly: GSK3beta kinase inhibitor potency, dose response, biochemical, luminescence, cell-free homogeneous, retest (AID 434954).
`COc1cccc(C(=O)NCC(=O)NN=C(C)C=Cc2ccccc2)c1` [MLS000723417] gave a pEC50 below 3.52.
In turn, `COCCCNc1nc(N)c([N+](=O)[O-])c(Nc2cc(OC)ccc2OC)n1` [N4-(2,5-dimethoxyphenyl)-N2-(3-methoxypropyl)-5-nitro-pyrimidine-2,4,6-triamine] gave a pEC50 of 6.13.
Consider `Nc1nc(NCc2ccccc2)nc(NCCO)c1[N+](=O)[O-]` [MLS000332798], for which the negative-log EC50 (pEC50) was 4.14.
To `C/C(C=NNC(=O)c1nnn(-c2nonc2N)c1CN1CCCCC1)=C\c1ccccc1` [1-(4-azanyl-1,2,5-oxadiazol-3-yl)-N-[[(E)-2-methyl-3-phenyl-prop-2-enylidene]amino]-5-(piperidin-1-ylmethyl)-1,2,3-triazole-4-carboxamide] belongs 4.54.
With `Nc1nc(NCC2CCCO2)nc(Nc2ccccc2F)c1[N+](=O)[O-]` (centres undefined) [MLS000769541], the pEC50 is 5.63.
The compound `COc1cccc(CCNC(=O)c2ccc(C#N)cc2)c1` [MLS000696427] gave a negative-log EC50 (pEC50) below 3.52.
Consider `COc1cc2[nH]c(=O)n3nc(-c4ccccc4)nc3c2cc1OC` [8,9-dimethoxy-2-phenyl[1,2,4]triazolo[1,5-c]quinazolin-5(6H)-one], for which the pEC50 was 5.27.
For the compound `CC1CCc2c(sc3nn[nH]c(=O)c23)C1` (centres undefined) [SMR000124179], the pEC50 was 4.41.
`Oc1ccc(CNCC2COc3ccccc3O2)cc1` (centres undefined) [SMR000145120] had a negative logarithm of the EC50 (pEC50) below 3.52.
To `CON=C(CNC(=O)c1ccc(Cl)cc1Cl)c1ccc(Cl)cc1` [SMR000179199] belongs below 3.52; to `COc1ccc(CCNc2nc(-c3ccc(O)cc3)cs2)cc1OC` [SMR000502906], below 3.52.
In the case of `Cc1cc(OC(C)C)c2c(-c3ccccc3)cc(=O)oc2c1` [SMR000141385], the negative-log EC50 (pEC50) was below 3.52.
`CC(=O)Nc1c(-c2ccccc2)nc2ccc(Cl)cn12` [MLS001077169] had a pEC50 below 3.52.
As for `Nc1nc(O)c(N=Nc2ccc(S(N)(=O)=O)cc2)c(=O)[nH]1` [SMR000543013], the pEC50 is below 3.52.
Take `CCCCCOC(=O)C1C(C)=Nc2ncnn2C1c1cccs1` (centres undefined): the pEC50 is below 3.52.
`CSc1nnnn1-c1c(C)cccc1C` [MLS000861118] had a negative-log EC50 (pEC50) below 3.52.
In turn, `O=S1(=O)CC2SC(=S)N(c3ccccc3)C2C1` (centres undefined) gave a negative-log EC50 (pEC50) below 3.52.
For `CN(CCO)S(=O)(=O)c1ccc2c(c1)C(=NNC(N)=O)c1cc(S(=O)(=O)N(C)CCO)ccc1-2` [MLS000766695], the negative-log EC50 (pEC50) is below 3.52.
`CC(=O)c1cccc(S(=O)(=O)NC2CCSc3ccccc32)c1` (centres undefined): the pEC50 is below 3.52.
The compound `COCCNc1nc(N)c([N+](=O)[O-])c(Nc2ccc(F)cc2)n1` had a pEC50 below 3.52.
For `Cc1ccc(SCc2c(C(=O)NN=Cc3ccoc3)nnn2-c2nonc2N)cc1` [SMR000647588] the value was below 3.52; for `COc1ccc(-c2cc(C(=O)N3CCN(C(=O)c4ccco4)CC3)[nH]n2)cc1` [SMR000623613], below 3.52; for `C=CCNc1nc(N)c([N+](=O)[O-])c(Nc2ccccc2OC)n1` [4-N-(2-methoxyphenyl)-5-nitro-2-N-prop-2-enylpyrimidine-2,4,6-triamine], below 3.52.
Regarding `CCOC(=O)c1c(C)oc2c(CC(=O)c3ccccc3)c(Cl)c(O)c(O)c12` [ethyl 6-chloro-4,5-dihydroxy-2-methyl-7-phenacyl-1-benzofuran-3-carboxylate], the pEC50 is below 3.52.
As for `CS(=O)(=O)Nc1cccc(-c2cn3c(n2)SCC3)c1` [MLS001167062], the negative-log EC50 (pEC50) is below 3.52.
`Cc1cccc(Nc2ccccc2C(=O)O)c1C` had a pEC50 below 3.52.
For `Cc1cc([N+](=O)[O-])c(C)cc1-c1ccc(/C=N/n2cnnc2)o1` [1-[5-(2,5-dimethyl-4-nitrophenyl)furan-2-yl]-N-(1,2,4-triazol-4-yl)methanimine] the value was below 3.52; for `COc1ccc2nc3c(cc2c1)c(NC(=O)c1cccs1)nn3CC(C)C` [MLS000041975], 7.02.
With `CCOC(=O)c1ccc(NS(=O)(=O)c2ccc3c(c2)NC(=O)CCS3)cc1` [SMR000630284], the pEC50 was below 3.52.
Compound `Nc1nc(NCC2CCCO2)nc(Nc2cccc(Cl)c2)c1[N+](=O)[O-]` (centres undefined) [SMR000434547] showed a pEC50 below 3.52.
As to `O=C1CCCC2=Nc3nc(SCc4ccccc4)nn3C(c3cccs3)C12` (centres undefined) [2-(phenylmethylthio)-9-thiophen-2-yl-5,6,7,9-tetrahydro-1H-[1,2,4]triazolo[5,1-b]quinazolin-8-one], the pEC50 was below 3.52.
Compound `CN=C(C)C(C(=O)OC)C(=O)c1ccc(Cl)cc1Cl` (centres undefined) [SMR000461254] had a pEC50 below 3.52.
On to `O=C(Nc1ccc(O)c2c(=O)cc(-c3ccccc3Cl)oc12)c1ccccc1Cl`, for which the negative-log EC50 (pEC50) is below 3.52.
Compound `C=CCC1(CC=C)CCCN1C(=O)C1CCC(=O)N(CCc2ccc(OC)cc2)C1` (centres undefined) [MLS001072450] gave a pEC50 below 3.52.
For `CN(C)CCCNc1nc(N)c([N+](=O)[O-])c(NCc2ccccc2)n1` [MLS001165050], the negative-log EC50 (pEC50) is 4.42.
`COc1ccc(-c2ccc3c(N)c(C(=O)c4cccc(OC)c4)sc3n2)cc1` [SMR000160395] had a pEC50 below 3.52.
`O=Cc1cc(CCC(=O)O)ccc1O` [SMR000639316]: the pEC50 is below 3.52.
Turning to `O=C(c1noc2c1CCc1ccccc1-2)N1CCOCC1` [3-(morpholin-4-ylcarbonyl)-4,5-dihydronaphtho[2,1-d]isoxazole], the negative-log EC50 (pEC50) is below 3.52.
To `Cc1nn(-c2ccccn2)c2c1C(c1ccncc1)C1C(=O)CC(C)(C)CC1=N2` (centres undefined) [SMR000152057] belongs below 3.52.
For `Cc1ccc(-c2n[nH]c(=S)n2N=Cc2ccncc2)cc1` [SMR000269897] the value was 4.94.
For `O=C(NNC(=O)C1[C@H]2CCCC[C@@H]12)c1ccc(=O)oc1` (some centres undefined) [MLS000768334] the value was below 3.52; for `Clc1ccc2[nH]c3c(c2c1)CCc1c[nH]nc1-3` [MLS000108710], 4.60; for `Cc1ccc(-c2nn(-c3ccccc3)cc2C=C2C(=O)CC(C)(C)CC2=O)cc1` [5,5-dimethyl-2-[[3-(4-methylphenyl)-1-phenylpyrazol-4-yl]methylidene]cyclohexane-1,3-dione], below 3.52.
The compound `CC(=O)N1CCc2c(sc(NC(=O)CN3C(=O)CCC3=O)c2C(N)=O)C1` [6-acetyl-2-[[2-(2,5-dioxopyrrolidin-1-yl)acetyl]amino]-5,7-dihydro-4H-thieno[2,3-c]pyridine-3-carboxamide] gave a negative-log EC50 (pEC50) of 5.64.
For `CSc1nc(N)c2c3c(sc2n1)CN(C)CC3` [7-methyl-2-methylsulfanyl-6,8-dihydro-5H-pyrido[4,5]thieno[1,2-c]pyrimidin-4-amine] the value was 4.14.
Compound `c1ccc(CCCCNCC2COc3ccccc3O2)cc1` (centres undefined) [N-(2,3-dihydro-1,4-benzodioxin-3-ylmethyl)-4-phenylbutan-1-amine] had a pEC50 below 3.52.
`Fc1ccc(CSc2ccc3nnc(-c4cccs4)n3n2)cc1` [SMR000236997] had a pEC50 below 3.52.
In turn, `COc1cc(NC(=O)COC(=O)CCc2cc(OC)c(OC)c(OC)c2)cc(OC)c1` [SMR000349752] showed a negative-log EC50 (pEC50) below 3.52.
As for `COc1ccc(-c2nn(-c3ccccc3)cc2C=NNC(=S)NC(C)C)cc1OC` [1-[[3-(3,4-dimethoxyphenyl)-1-phenyl-4-pyrazolyl]methylideneamino]-3-propan-2-ylthiourea], the negative-log EC50 (pEC50) was below 3.52.
In the case of `CCOC(=O)c1c(C)[nH]c(C)c1S(=O)(=O)NCC(=O)Nc1ccccn1` [ethyl 2,5-dimethyl-4-[[2-oxo-2-(pyridin-2-ylamino)ethyl]sulfamoyl]-1H-pyrrole-3-carboxylate], the negative logarithm of the EC50 (pEC50) was below 3.52.
To `CN(C)c1ccc(C=NNC(=O)c2nnn(-c3nonc3N)c2CN2CCCCCC2)cc1` [1-(4-amino-1,2,5-oxadiazol-3-yl)-5-(1-azepanylmethyl)-N-[[4-(dimethylamino)phenyl]methylideneamino]-4-triazolecarboxamide] belongs below 3.52; to `O=C(O)COc1ccc(C(=O)c2ccccc2)cc1` [2-[4-(phenylcarbonyl)phenoxy]ethanoic acid], below 3.52.
For `Nc1nc(NCC2CCCO2)nc(Nc2ccc(Cl)cc2)c1[N+](=O)[O-]` (centres undefined) [N'-(4-Chloro-phenyl)-5-nitro-N-(tetrahydro-furan-2-ylmethyl)-pyrimidine-2,4,6-triamine] the value was 5.64.
`CCCn1nc(NC(=O)C2CCCO2)c2cc3cc(C)ccc3nc21` (centres undefined) [SMR000148635] gave a negative-log EC50 (pEC50) below 3.52.
Turning to `CCn1c(=O)cc(OCC(=O)N(C)c2ccccc2F)c2ccccc21` [2-(1-ethyl-2-oxidanylidene-quinolin-4-yl)oxy-N-(2-fluorophenyl)-N-methyl-ethanamide], the pEC50 was below 3.52.
Take `Cc1noc2c1C(c1ccc(N(C)C)cc1)C1C(=O)CC(C)(C)CC1=N2` (centres undefined) [MLS000565136]: the negative logarithm of the EC50 (pEC50) was below 3.52.
`CCOC(=O)c1c(C)[nH]c(C)c1C(=O)COC(=O)CNC(=O)c1ccc(OCC)cc1` [4-[2-[2-[[(4-ethoxyphenyl)-oxomethyl]amino]-1-oxoethoxy]-1-oxoethyl]-2,5-dimethyl-1H-pyrrole-3-carboxylic acid ethyl ester] showed a negative logarithm of the EC50 (pEC50) below 3.52.
For the compound `Cc1cc(OCCCn2ccnc2)ccc1[N+](=O)[O-]` [SMR000497363], the pEC50 was below 3.52.
For `Cc1ccc(Sc2ccc(CN=O)cc2[N+](=O)[O-])cc1` [4-[(4-methylphenyl)thio]-3-nitrobenzaldehyde oxime] the value was 4.29; for `O=C(COC(=O)c1cc(=O)c2ccccc2o1)NC1CCCC1` [MLS001017387], below 3.52; for `Cc1ccc(NC(=O)CSc2nccn2C)cc1F` [N-(3-fluoro-4-methylphenyl)-2-[(1-methyl-2-imidazolyl)thio]acetamide], below 3.52.
The compound `CCCCCOc1ccc(C=NNC(=O)c2nnn(-c3nonc3N)c2CN2CCCCCC2)cc1` [1-(4-azanyl-1,2,5-oxadiazol-3-yl)-5-(azepan-1-ylmethyl)-N-[(4-pentoxyphenyl)methylideneamino]-1,2,3-triazole-4-carboxamide] gave a pEC50 of 5.01.
Take `c1ccc2c(CSc3nnc(-c4ccncc4)o3)cccc2c1` [2-(naphthalen-1-ylmethylsulfanyl)-5-pyridin-4-yl-1,3,4-oxadiazole]: the pEC50 is 4.54.
In the case of `Cc1nccc(-c2cccc(NC(=O)c3ccccc3Cl)c2)n1` [MLS000859188], the pEC50 was below 3.52.
